# According to patent US10280166B2, “2-(1H-indazol-3-yl)-3H-imidazo[4,5-B]pyridine and therapeutic uses thereof” (Samumed, LLC, priority 2014, dated 2019):
# pEC50, pIC50: −log10 of the molar value.
# Key:
# [1] = test system: Wnt activity (SW480 colon carcinoma cells stably expressing the Sp5-Luc reporter gene); assay: Sp5-Luc reporter gene screening assay for Wnt activity in SW480 cells; type: cell-based; settings: Homo sapiens, 42 h incubation, luminescence
# Outline: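 SW480 cells stably carrying an Sp5 promoter (eight TCF/LEF sites)-luciferase reporter were plated overnight in 10% FCS medium. BrightGlo luminescence was normalised to DMSO wells, and IC50 was obtained by four-parameter fit.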
# [2] = test system: primary human fibroblasts derived from IPF patients (LL29 cells); assay: Inhibition of fibrosis (αSMA) in TGF-β1 treated primary human fibroblasts from IPF patients; type: cell-based; settings: Fibroblast, 96 h, TGF-β1 20 ng/mL, 4 days, % αSMA positive cells
# Outline: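 IPF patient-derived LL29 lung fibroblasts in 1% FBS were treated with compound (11 points, 10 μM to 1.87 nM, 0.1% DMSO) and then 20 ng/mL TGF-β1 for 4 days at 37° C. Fraction of SYTOX-negative cells positive for αSMA was quantified by immunofluorescence imaging and normalized to TGF-β1 controls. EC50 came from non-linear regression over triplicate wells.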
Structure (SMILES),pIC50 [1],pEC50 [2]
"O=C(Nc1cncc(-c2ccc3[nH]nc(-c4nc5c(-c6ccccc6F)ccnc5[nH]4)c3c2)c1)C1CCCC1 [Compound 73, N-(5-(3-(7-(2-Fluorophenyl)-3H-imidazo[4,5-b]pyridin-2-yl)-1H-indazol-5-yl)pyridin-3-yl)cyclopentanecarboxamide]",7.89,9.42
"CC(C)C(=O)Nc1cncc(-c2ccc3[nH]nc(-c4nc5c(-c6ccsc6)ccnc5[nH]4)c3c2)c1 [Compound 269, N-(5-(3-(7-(Thiophen-3-yl)-3H-imidazo[4,5-b]pyridin-2-yl)-1H-indazol-5-yl)pyridin-3-yl)isobutyramide]",8.29,8.00
"Cc1cn(-c2ccnc3[nH]c(-c4n[nH]c5ccc(-c6cncc(NC(=O)C(C)(C)C)c6)cc45)nc23)cn1 [Compound 190, N-(5-(3-(7-(4-Methyl-1H-imidazol-1-yl)-3H-imidazo[4,5-b]pyridin-2-yl)-1H-indazol-5-yl)pyridin-3-yl)pivalamide]",8.13,11.05
"CN1CCN(c2ccnc3[nH]c(-c4n[nH]c5ccc(-c6cncc(NC(=O)C7CCCC7)c6)cc45)nc23)CC1 [Compound 229, N-(5-(3-(7-(4-Methylpiperazin-1-yl)-3H-imidazo[4,5-b]pyridin-2-yl)-1H-indazol-5-yl)pyridin-3-yl)cyclopentanecarboxamide]",6.55,8.97
"c1ccc(CNCc2cncc(-c3ccc4[nH]nc(-c5nc6c(-c7cccnc7)ccnc6[nH]5)c4c3)c2)cc1 [Compound 101, N-Benzyl-1-(5-(3-(7-(pyridin-3-yl)-3H-imidazo[4,5-b]pyridin-2-yl)-1H-indazol-5-yl)pyridin-3-yl)methanamine]",< 5.00,9.63
"CC(C)Nc1cncc(-c2ccc3[nH]nc(-c4nc5c(-c6cc(F)cc(NCCN(C)C)c6)ccnc5[nH]4)c3c2)c1 [Compound 454, N^1-(3-Fluoro-5-(2-(5-(5-(isopropylamino)pyridin-3-yl)-1H-indazol-3-yl)-3H-imidazo[4,5-b]pyridin-7-yl)phenyl)-N^2,N^2-dimethylethane-1,2-diamine]",7.29,10.72
"CS(=O)(=O)NCc1cc(F)cc(-c2ccnc3[nH]c(-c4n[nH]c5ccc(-c6cncc(CNCc7ccccc7)c6)cc45)nc23)c1 [Compound 439, N-(3-(2-(5-(5-((Benzylamino)methyl)pyridin-3-yl)-1H-indazol-3-yl)-3H-imidazo[4,5-b]pyridin-7-yl)-5-fluorobenzyl)methanesulfonamide]",6.45,11.05
"Fc1cccc(-c2ccnc3[nH]c(-c4n[nH]c5ccc(C6CCNCC6)cc45)nc23)c1 [Compound 1873, 7-(3-Fluorophenyl)-2-(5-(piperidin-4-yl)-1H-indazol-3-yl)-3H-imidazo[4,5-b]pyridine]",5.49,10.43
"CN(C)CC(=O)Nc1cncc(-c2ccc3[nH]nc(-c4nc5c(-c6cccc(F)c6)ccnc5[nH]4)c3c2)c1 [Compound 2373, 2-(Dimethylamino)-N-(5-(3-(7-(3-fluorophenyl)-3H-imidazo[4,5-b]pyridin-2-yl)-1H-indazol-5-yl)pyridin-3-yl)acetamide]",7.04,9.63
"CCNCc1cncc(-c2ccc3[nH]nc(-c4nc5c(-c6ccoc6)ccnc5[nH]4)c3c2)c1 [Compound 292, N-((5-(3-(7-(Furan-3-yl)-3H-imidazo[4,5-b]pyridin-2-yl)-1H-indazol-5-yl)pyridin-3-yl)methyl)ethanamine]",7.32,11.05
"CN(C)c1cncc(-c2ccc3[nH]nc(-c4nc5c(N6CCCCC6)ccnc5[nH]4)c3c2)c1 [Compound 163, N,N-Dimethyl-5-(3-(7-(piperidin-1-yl)-3H-imidazo[4,5-b]pyridin-2-yl)-1H-indazol-5-yl)pyridin-3-amine]",6.91,11.05
"Fc1cccc(-c2ccnc3[nH]c(-c4n[nH]c5ccc(-c6ccccn6)cc45)nc23)c1 [Compound 1889, 7-(3-Fluorophenyl)-2-(5-(pyridin-2-yl)-1H-indazol-3-yl)-3H-imidazo[4,5-b]pyridine]",< 6.00,10.74
